Reference: patent publication US8598384B2, “Crystalline teglicar” (Sigma-Tau Industrie Farmaceutiche Riunite S.p.A., priority 2007, dated 2013)

Tests used:
[1] = Karl Fisher analysis (water content), hygroscopic stability; assay type: physicochemical; settings: exposed to the air for 18 hours; for KF (% H2O) t = 18 h: kept at room temperature
Protocol: Water content analysis were carried out with a Metrohm's KF Coulometer, using Metrohm glass vials (volume 10 mL) with elastometric tight closure, with about 10÷40 mg of sample. The samples were analyzed at 140° C.
The reference was an empty vial of the same kind. Sodium Tartrate diHydrate (theoretical amount is 15.66%) was used to assess the calibration of the apparatus with regard to the humidity.
Then these compounds were kept at room temperature under the same conditions, exposed to the air for 18 hours.

serum glucose levels = settings: diabetic mouse model; cited from earlier work
ketogenesis = settings: in vivo, fasted rats; cited from earlier work
[2] = target: T1, L-CPT I (liver CPT isoform I) (Homo sapiens, UniProt P50416); settings: in vitro; cited from earlier work
T1 sequence (P50416 1-773): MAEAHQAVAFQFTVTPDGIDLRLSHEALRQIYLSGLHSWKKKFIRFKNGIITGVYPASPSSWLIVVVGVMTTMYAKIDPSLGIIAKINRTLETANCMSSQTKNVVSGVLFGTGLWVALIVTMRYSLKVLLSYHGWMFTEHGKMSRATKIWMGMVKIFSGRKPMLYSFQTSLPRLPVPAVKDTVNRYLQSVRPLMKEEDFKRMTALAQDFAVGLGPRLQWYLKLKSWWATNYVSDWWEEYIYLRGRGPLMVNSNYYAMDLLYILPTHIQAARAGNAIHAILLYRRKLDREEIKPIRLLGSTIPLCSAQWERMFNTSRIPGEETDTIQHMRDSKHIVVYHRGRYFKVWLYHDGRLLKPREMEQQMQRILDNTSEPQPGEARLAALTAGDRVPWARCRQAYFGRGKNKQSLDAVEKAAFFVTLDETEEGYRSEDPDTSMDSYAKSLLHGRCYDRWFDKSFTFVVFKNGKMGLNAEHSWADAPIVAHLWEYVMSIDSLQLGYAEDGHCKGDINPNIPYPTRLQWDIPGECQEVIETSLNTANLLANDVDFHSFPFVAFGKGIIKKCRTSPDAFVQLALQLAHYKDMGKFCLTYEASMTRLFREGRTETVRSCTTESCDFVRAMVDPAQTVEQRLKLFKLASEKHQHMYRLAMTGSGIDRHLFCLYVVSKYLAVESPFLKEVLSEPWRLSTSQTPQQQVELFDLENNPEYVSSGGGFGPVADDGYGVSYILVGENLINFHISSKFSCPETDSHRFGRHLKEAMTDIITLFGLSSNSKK

CCCCCCCCCCCCCCNC(=O)N[C@H](CC(=O)[O-])C[N+](C)(C)C [Comparative Example 2, R-4-trimethylammonium-3-(tetradecylcarbamoyl)-amino butyrate]
KF (% H2O) t = 18 h [1]: 15.2%
change of H2O content after exposure to air ([1]; room temperature, repeated KF analysis): large increase of H2O content

CCCCCCCCCCCCCCNC(=O)N[C@H](CC(=O)[O-])C[N+](C)(C)C [teglicar, R-4-trimethylammonium-3-(tetradecylcarbamoyl)-amino butyrate]
change in heart weight and triglycerides content (serum glucose levels): without any significant change
effect on serum glucose levels (serum glucose levels): good reduction of serum glucose levels
effect on ketogenesis (ketogenesis): depress ketogenesis
selectivity of inhibition of L-CPT I with respect to M-CPT I [2]: selectively inhibit

CCCCCCCCCCCCCCNC(=O)N[C@H](CC(=O)[O-])C[N+](C)(C)C [Example 1, R-4-trimethylammonium-3-(tetradecylcarbamoyl)-amino butyrate]
KF (% H2O) t = 18 h [1]: 5.8%
